Patent US20190054097A1, “COMPOSITIONS TARGETING SENESCENT CELLS AND THE USES THEREOF” (BioVentures, LLC, priority 2016, published 2019)

Assays:
osteoclast progenitors = experiment: Five-day administration to aged mice: osteoclast differentiation from bone marrow macrophages; format: in vivo, 24-month-old female mice; settings: bone marrow macrophages from treated mice, cultured with RANKL and M-CSF for 5 days, FIG. 15A and 15B
Protocol: In summary, short-term administration of ABT-263 or Bcl-PROTAC to aged mice decreases senescent osteoprogenitors and osteocytes, as well as the SASP and osteoclastogenesis.
Bone marrow cells were obtained by flushing the tibiae and femurs from the 24 month-old female mice with α-MEM medium (Invitrogen). After the red blood cells were removed with ACK buffer (0.01 mM EDTA, 0.011 M KHCO3, and 0.155 M NH4Cl, pH 7.3), we suspended the cells in α-MEM complete media containing 10% (v/v) fetal bovine serum, 100 U ml-1 penicillin, and 100 μg ml-1 streptomycin and incubated the cells for 24 h in the presence of 10 ng ml-1 M-CSF. We collected the non-adherent cells and cultured with 30 ng ml-1 M-CSF for 3 days to generate bone marrow-derived macrophages. […] We fixed the osteoclast cultures with 10% neutral buffered formalin for 15 min and stained for tartrate-resistant acid phosphatase (TRAP) using the Leukocyte Acid Phosphatase Assay Kit, following the manufacturer's instructions (Sigma-Aldrich). For all assays we plated cells in triplicate.

senescent osteocytes = experiment: Five-day administration to aged mice: western blot and qPCR of osteocyte-enriched femoral bone shafts; format: in vivo, 24-month-old female mice
Protocol: ABT-263 or its derivative Bcl-PROTAC (or vehicles) were administered by daily i.p. injections for 5 days to 24-month-old female mice. […] We have shown that γ-H2AX, p16, GATA4, RANKL and MMP-13 increase, while OPG and Wnt10b decrease with age in bone of female and male mice (Piemontese et al., 2017 JCI Insight).
Osteocyte-enriched femoral cortical bone was prepared by removing the ends, flushing the bone marrow by centrifugation, and removal of surface cells by scraping with a scalpel. Bone fragments were immediately frozen in liquid nitrogen and pulverized. Proteins were extracted with a buffer containing 20 mM Tris-HCL, 150 mM NaCl, 1% Triton X-100, protease inhibitor mixture, and phosphatase inhibitor cocktail (Sigma-Aldrich) on ice for 30 min and then keep on −80° C. for overnight. The protein concentration of the bone extract was determined using the DC Protein Assay Kit (Bio-Rad). The extracted protein ([…] per sample) was subjected to 15% SDS-PAGE gels and transferred electrophoretically onto PVDF membranes. The membranes were blocked in 5% fat-free milk/Tris-buffered saline for 120 min and incubate with each primary antibody followed by secondary antibodies conjugated with horseradish peroxidase. […] Bound antibodies were detected with ECL reagents (Millipore), and imaged and quantified with a VersaDoc™ imaging system (Bio-Rad).
(§1) Total RNA was extracted with Ultraspec (Biotecx Laboratories) and reverse-transcribed using the High-Capacity cDNA Archive Kit (Applied Biosystems) according to the manufacturer's instructions. TaqMan quantitative real-time PCR was performed using the following primers from Applied Biosystems: Rankl (Mm00441908_m1); Mmp-13 (Mm00439491_m1); OPG (Mm00435452_m1); Wnt10b (Mm00442104_m1); IL-1α (Mm99999060_m1); Sdf-1 (Mm00445553_m1); p21 (Mm00432448_m1). Target gene expression was calculated by normalizing to the housekeeping gene ribosomal protein S2 (Mm00475528_m1) using the ΔCt method (Livak and Schmittgen, 2001).

platelets = settings: administration to subjects; platelets rely on Bcl-xl for survival; cited from earlier work
senescent cells [1] = experiment: Cisplatin-induced peripheral neuropathy (CIPN) in C57BL/6 mice, Von Frey assay and Hot Plate Analgesia Meter; format: in vivo; settings: 50 mg/kg/day i.p., 5 days per cycle, 2 cycles, mechanical sensitivity and thermal allodynia, FIG. 5-7
Protocol: CIPN was induced in young adult male and female C57BL/6 mice by intraperitoneal (i.p.) injection of Cisplatin (Lake Zurich, Ill., USA) at 2.3 mg/kg/d for 5 days per cycle for 2 cycles with an interval of 5 days between the cycles. The induction of CIPN was measured by analyzing the mechanical sensitivity using the Von Frey assay the day before Cisplatin treatment and on various day after Cisplatin treatment
Mice were treated as described in FIG. 1. The induction of CIPN was measured by analyzing the sensitivity to thermal allodynia using the Hot Plate Analgesia Meter on various day after Cisplatin treatment. N=10 for control group and 5 for Cisplatin-treated groups. ***p<0.001 vs. Control.
To determine the effect of senescent cells on the induction of CIPN, Cisplatin-treated mice were administered with vehicle or ABT263 at 50 mg/kg/day for 5 days per cycle for 2 cycles with an interval of 17 days between the cycles by i.p. injection at the indicated times after Cisplatin treatment. The induction of CIPN was measured by analyzing the mechanical sensitivity using the Von Frey assay (FIG. 5 and FIG. 6) and by analyzing the sensitivity to thermal allodynia using the Hot Plate Analgesia Meter (FIG. 7) the day before Cisplatin treatment and on various day after Cisplatin treatment.

[2] = test system: bone marrow stromal cells; experiment: Five-day administration to aged mice: ex vivo bone marrow stromal cell cultures (qPCR, osteoblast and adipocyte differentiation); format: in vivo, 24-month-old female mice
Source text: We also isolated bone marrow stromal cells from mice treated with vehicle or the senolytics and cultured them for 5 days.
Conversely, bone marrow cells from the mice treated with senolytics cultured in the presence of adipogenic medium had decreased adipogenic potential (FIG. 14C).
as §1
Total bone marrow cells pooled from 3-5 mice from each group were cultured with 20% FBS, 1% PSG and […] of ascorbic acid in 10-cm culture dishes for 5 days. Half of the medium was replaced every 3 days. Bone marrow-derived osteoprogenitor cells were re-plated into 12-well plates and cultured with […] of ascorbic acid and 10 mM b-glycerophosphate for 21 days. Mineralized matrix was stained with 40 mM Alizarin Red solution.
Bone marrow-derived stromal cells were cultured to 70% confluence, and the media supplemented with rosiglitazone (5 nM/m1) or with 3.3% BSA in PBS as vehicle control. Medium containing ligand was changed every 2 d for 11 d. Cells were fixed in 10% formalin in PBS, rinsed, and stained for 30 min with 0.15% Oil Red 0 (Sigma) in a 55:45 mix of isopropanol and water. Cells were counterstained with 0.5% methyl green (Fisher Scientific, Fairlawn, N.J.) in 0.1 M sodium acetate, pH4. Oil Red 0 staining was quantified after extraction of the dye with 1 ml isopropanol and absorbance determination at 490 nm.

senescent cells [3] = experiment: Cisplatin-induced peripheral neuropathy (CIPN) in p16-3MR transgenic mice, Von Frey assay and Hot Plate Analgesia Meter; format: in vivo; settings: GCV 25 mg/kg/day or ABT263 50 mg/kg/day i.p., 5 days per cycle, 2 cycles, FIG. 8-11
Protocol: CIPN was induced in young adult male and female p16-3MR mice by intraperitoneal (i.p.) injection of cisplatin (Lake Zurich, Ill., USA) at 2.3 mg/kg/d for 5 days per cycle for 2 cycles with an interval of 5 days between the cycles. The induction of CIPN was measured by analyzing the mechanical sensitivity using the Von Frey assay the day before Cisplatin treatment and on various day after Cisplatin treatment. N=5-6 mice per group.
Mice were treated as described in FIG. 8. The induction of CIPN was measured by analyzing the sensitivity to thermal allodynia using the Hot Plate Analgesia Meter on various day after Cisplatin treatment. N=5-6 mice per group.
To determine the effect of senescent cells on the induction of CIPN, cisplatin-treated mice were administered with vehicle, ganciclovir (GCV) at 25 mg/kg/day for 5 days per cycle for 2 cycles with an interval of 17 days between the cycles, or ABT263 at 50 mg/kg/day for 5 days per cycle for 2 cycles with an interval of 17 days between the cycles by i.p. injection at the indicated times after cisplatin treatment. […] The induction of CIPN was measured by analyzing the mechanical sensitivity using the Von Frey assay (FIG. 8 and FIG. 9) and by analyzing the sensitivity to thermal allodynia using the Hot Plate Analgesia Meter (FIG. 10 and FIG. 11) the day before Cisplatin treatment and on various day after Cisplatin treatment.

[4] = femoral extracts, qPCR, FIG. 12B
[5] = bone marrow-derived stromal cells from treated mice, ex vivo culture, FIG. 13

CC1(C)CCC(c2ccc(Cl)cc2)=C(CN2CCN(c3ccc(C(=O)NS(=O)(=O)c4ccc(N[C@H](CCN5CCOCC5)CSc5ccccc5)c(S(=O)(=O)C(F)(F)F)c4)cc3)CC2)C1 [ABT-263, (R)-4-(4-((4′-chloro-4,4-dimethyl-3,4,5,6-tetrahydro-[1,1′-biphenyl]-2-yl-)methyl)piperazin-1-yl)-N-((4-((4-morpholino-1-(phenylthio)butan-2-yl)amin-o)-3-((trifluoromethyl)sulfonyl)phenyl)sulfonyl)benzamide]
Osteoclastogenic potential (TRAP-positive multinucleated cells) (osteoclast progenitors): decreased osteoclastogenic potential
mRNA for OPG (senescent osteocytes; [4]): increased the mRNA for OPG
mRNA for RANKL and MMP13 (senescent osteocytes; [4]): decreased the mRNA for RANKL and MMP13
Markers of cell senescence: protein levels of γ-H2AX, p16 and GATA4 (senescent osteocytes; osteocyte-enriched femoral bone shafts, daily i.p. for 5 days, western blot, FIG. 12A): decreased marker of cell senescence
Thrombocytopenia (platelets): cause thrombocytopenia
Reversal of cisplatin-induced peripheral neuropathy (senescent cells [1]): reversed Cisplatin-induced peripheral neuropathy (CIPN)
Expression of p21 [2, 5]: decreased expression of p21
mRNA levels of RANKL, MMP-13, IL-1a and SDF-1 [2, 5]: decreased mRNA levels of RANKL and MMP-13, as well as IL-1a and SDF-1
Osteoblastogenic potential (Alizarin Red staining) ([2]; stromal cells from treated mice, 21 days in osteogenic medium, FIG. 14A and 14B): promotes osteoblastogenesis
Reversal of cisplatin-induced peripheral neuropathy (senescent cells [3]): reversed cisplatin-induced peripheral neuropathy (CIPN)
